Measured values published in patent US11173146B2, “Selective activators of the intermediate conductance CA2+activated K+ channel KCa3.1 and their methods of use” (The Regents of the University of California, priority 2014, dated 2021).
Read-outs that look alike come from different tables or passages of the source.

Assays:
KCa2 channels = details: literature, cited from earlier work
KCa3.1 = KCa3.1 (Homo sapiens, UniProt O15554+P0DP23); details: literature; cited from earlier work
KV11.1 (hERG) = target: T1, KV11.1 (hERG) (Homo sapiens, UniProt Q12809); details: literature; cited from earlier work
T1 construct: host or cells: HEK-293
T1 sequence (Q12809 whole entry): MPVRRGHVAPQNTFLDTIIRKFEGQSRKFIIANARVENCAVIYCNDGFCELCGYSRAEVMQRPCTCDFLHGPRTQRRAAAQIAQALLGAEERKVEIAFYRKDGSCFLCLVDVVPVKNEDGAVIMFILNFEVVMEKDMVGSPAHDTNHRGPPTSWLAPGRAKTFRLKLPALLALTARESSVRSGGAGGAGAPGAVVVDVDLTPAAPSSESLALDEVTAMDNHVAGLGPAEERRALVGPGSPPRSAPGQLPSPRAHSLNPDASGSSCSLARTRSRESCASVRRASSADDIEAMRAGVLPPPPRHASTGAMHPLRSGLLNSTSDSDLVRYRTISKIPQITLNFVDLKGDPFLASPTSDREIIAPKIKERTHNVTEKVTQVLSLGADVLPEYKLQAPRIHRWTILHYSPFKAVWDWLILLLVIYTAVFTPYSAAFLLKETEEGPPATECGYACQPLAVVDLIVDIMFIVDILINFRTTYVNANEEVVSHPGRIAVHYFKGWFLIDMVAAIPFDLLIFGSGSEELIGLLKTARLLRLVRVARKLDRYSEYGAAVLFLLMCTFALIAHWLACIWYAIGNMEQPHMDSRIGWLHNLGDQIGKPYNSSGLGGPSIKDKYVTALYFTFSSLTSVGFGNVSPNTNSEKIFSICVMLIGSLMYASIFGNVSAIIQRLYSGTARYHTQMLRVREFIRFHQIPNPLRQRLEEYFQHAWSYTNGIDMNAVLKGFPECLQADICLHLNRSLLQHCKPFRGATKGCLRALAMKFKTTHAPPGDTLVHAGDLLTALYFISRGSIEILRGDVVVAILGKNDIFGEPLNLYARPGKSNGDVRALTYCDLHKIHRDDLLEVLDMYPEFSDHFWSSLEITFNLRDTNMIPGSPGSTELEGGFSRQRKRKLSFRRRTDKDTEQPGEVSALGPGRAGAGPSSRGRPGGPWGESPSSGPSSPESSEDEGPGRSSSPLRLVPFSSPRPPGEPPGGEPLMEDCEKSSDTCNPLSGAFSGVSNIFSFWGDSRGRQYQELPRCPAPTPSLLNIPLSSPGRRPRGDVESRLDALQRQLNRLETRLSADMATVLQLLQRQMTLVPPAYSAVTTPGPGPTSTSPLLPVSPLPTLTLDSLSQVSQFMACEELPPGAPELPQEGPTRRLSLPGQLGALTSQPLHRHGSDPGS

KCa2.1 = KCa2.1 (Homo sapiens, UniProt Q92952); details: literature; cited from earlier work
KCa2/3 channels = details: literature; read-out: EC50s for activation of KCa2/3 channels; cited from earlier work
[1] = tested on: voltage-gated sodium (NaV) channels; details: literature; cited from earlier work
mice = details: literature, cited from earlier work
dogs = details: intravenous 2 mg/kg, literature; cited from earlier work
[2] = rats; literature; cited from earlier work
[3] = Solubility for electrophysiology testing; assay type: physicochemical

CCn1c(=O)[nH]c2ccccc21 [EBIO, 1-ethylbenzimidazolin-2-one]
EC50 (KCa2 channels; all three KCa2 channels): ~300 µM

O=C1Nc2c(ccc(Cl)c2Cl)C1=NO [NS309, 6,7-dichloro-1H-indole-2,3-dione 3 oxime]
EC50 (KCa2 channels): ~0.6 µM
EC50 (KCa3.1): ~0.02 µM
concentration that inhibits KV11.1 (hERG) (KV11.1 (hERG)): 1000 nM

Cc1cc(C)n(-c2nc(Nc3ccc(Cl)cc3)c3ncn(C)c3n2)n1 [NS13001]
activity on KCa2.1 (KCa2.1): completely inactive
activity on KCa3.1 (KCa3.1): completely inactive

Nc1nc2ccc(OC(F)(F)F)cc2s1 [Riluzole]
EC50 (KCa2/3 channels): 10 to 20 µM
concentrations that inhibit/affect NaV channels [1]: 1 to 50 µM

Nc1nc2c(ccc3ccccc32)s1 [SKA-31, naphtho[1,2-d]thiazol-2-ylamine]
heart rate (mice; 100 mg/kg): significant bradycardia
duration of blood pressure lowering (mice; 10-30 mg/kg): 60 to 90 min
lowering of blood pressure (mice; 10-30 mg/kg): ~30 mmHg
reduction in blood pressure (dogs): −30 mmHg
half-live [2]: 12 h

Nc1nc2c(cc(Br)c3ccccc32)s1 [SKA-87, 5-Bromooaphtho[1,2-d]thiazol-2-amine]
solubility [3]: too insoluble to be tested
